Assay results as given in patent US20250051327A1, “MALT-1 MODULATORS” (EXSCIENTIA AI LIMITED, priority 2020, published 2025).

Legend:
[1] = molecular target: Recombinant human MALT-1 (amino acids 340-824) (Homo sapiens (Human), UniProt Q9UDY8); assay: MALT-1 inhibition assay (fluorogenic substrate Ac-LRSR-Rh110-DP); assay type: biochemical; conditions: recombinant human MALT-1, substrate Ac-LRSR-Rh110-DP
Experimental: MALT-1 paracaspase activity was measured using the fluorogenic substrate Ac-LRSR-Rh110-DP (purchased from Biosantan GmbH). […] The reaction was initiated by addition of substrate. Final concentrations of MALT-1 and substrate were 3 nM and 10 μM respectively. Reactions were incubated in the dark for 60 minutes at 25° C. […] Percent inhibition values were calculated from relative fluorescence units at different doses and fitted to a 4-parameter logistic curve to determine IC50 values (see Table 1).

[2] = system: IL-2 secretion by human effector memory T cells (TEM); assay: Effector memory T cells IL-2 release assay; assay type: cell-based; conditions: T-cell; human CD4+ effector memory T cells, CD3/CD28 bead stimulation, 24 h; read-out: CD4TC IL2 IC50
Experimental: Effector Memory T Cells IL-2 Release Assay
Test compound-mediated inhibition of NFκB signalling in T cells was assessed by quantification of the IL-2 secretion by human effector memory T cells (TEM) upon treatment and stimulation. Human TEM cells were isolated from buffy coats of healthy donors obtained from the French blood bank. First, peripheral blood mononuclear cells (PBMC) were purified from buffy coats diluted 1:1 with DPBS (Gibco, cat #14190-094) by Pancoll (PAN BIOTECH, cat #P04-60500) density gradient centrifugation at 400×g for 20 minutes. TEM cells were further enriched by negative immuno-magnetic cell sorting using a human CD4+ Effector Memory T Cell Isolation Kit (Miltenyi, cat #130-094-125) according to the manufacturer's instructions. Aliquots of 3×10E6 purified TEM cells were kept frozen in Cryo-SFM medium (PromoCell, cat #C-29912) in gas phase nitrogen until used. Cell purity was verified by flow cytometry analysis of 200 000 PFA-fixed cells previously labelled with monoclonal antibodies anti-CD4-PerCP-Cy5.5 (BD Pharmigen, cat #332772), anti-CD8-V500 (BD Biosciences, cat #561617), anti-CD14-Pacific Blue (Biolegend, cat #325616), anti-CD45 RA-FITC (Biolegend, cat #304106) and anti-CCR7-APC (in CD4+ Effector Memory T Cell Isolation Kit, Miltenyi, cat #130-094-125).
TEM cells were resuspended in complete RPMI medium composed of: RPMI 1640 (Gibco, cat #31870-025), 10% heat inactivated fetal bovine serum (Sigma, cat #F7524), 2 mM GlutaMAX (Gibco, cat #35050-038), 1 mM sodium pyruvate 100× (Gibco, cat #11360-039), 1% MEM non-essential amino acids solution (Gibco, cat #11140-035) and 100 U/mL penicillin, 100 μg/mL streptomycin (Sigma-Aldrich, cat #11074440001). 5,000 cells per well were plated onto flat clear bottom 384 well plates (Corning, cat #3770). 5,000 Dynabeads Human T-Activator CD3/CD28 (Gibco, cat #11132D) were added to each well for cell stimulation. Finally, 10 doses of test compound, originally prepared in DMSO by serial semi-log step dilution, were also added to cells in triplicate wells. Final DMSO concentration in wells was 0.1% in a total volume of 100 μL complete medium. Plates were incubated for 24 h at 37° C. in 5% CO2 atmosphere. After incubation, cell suspensions were centrifuged at 400×g and culture supernatants were recovered and stored at −80° C. Cell viability was assessed by flow cytometry after staining the cells with Fixable Viability Dye eFluor 780 (Invitrogen, cat #65-0865-14). IL-2 levels were determined in cell supernatants using an HTRF human IL-2 detection kit (Cisbio, cat #62HIL02PEH). IL-2 data at the different compound doses were fitted to a 4-parameter logistic curve to determine IC50 values, corresponding to the compound concentration leading to 50% reduction of the maximal IL-2 levels observed in each experiment. Viability data were analysed similarly to exclude cytotoxicity as a cause of IL-2 decrease (see Table 1).

Recombinant human MALT-1 (amino acids 340-824), sequence (Q9UDY8 340-824): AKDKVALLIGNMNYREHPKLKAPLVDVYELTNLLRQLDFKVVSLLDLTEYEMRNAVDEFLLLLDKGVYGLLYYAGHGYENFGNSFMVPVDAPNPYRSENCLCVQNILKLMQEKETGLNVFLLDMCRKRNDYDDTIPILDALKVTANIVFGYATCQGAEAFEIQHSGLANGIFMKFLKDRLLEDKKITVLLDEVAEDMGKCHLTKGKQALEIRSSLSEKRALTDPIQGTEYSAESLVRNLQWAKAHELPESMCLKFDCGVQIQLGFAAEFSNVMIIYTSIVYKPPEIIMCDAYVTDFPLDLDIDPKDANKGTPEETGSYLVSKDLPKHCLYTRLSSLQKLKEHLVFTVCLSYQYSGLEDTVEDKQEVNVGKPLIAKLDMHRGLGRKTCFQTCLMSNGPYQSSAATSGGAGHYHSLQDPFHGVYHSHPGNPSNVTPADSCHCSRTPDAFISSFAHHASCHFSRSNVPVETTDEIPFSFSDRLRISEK

| SMILES | IC50 [1] [nM] | IC50 [2] [nM] |
| --- | --- | --- |
| CN(C(=O)[C@H]1CCS(=O)(=O)C1)[C@@H](c1ccc(N2CCCc3c2cnc2cc(Cl)nn32)cc1)C(F)(F)F (relative stereo) [CPD0022134, (3rel-R)-N-[(1S)-1-(4-{4-chloro-2,3,7,10-tetraazatricyclo[7.4.0.0^2,6]trideca-1(9),3,5,7-tetraen-10-yl}phenyl)-2,2,2-trifluoroethyl]-N-methyl-1,1-dioxo-1λ^6-thiolane-3-carboxamide] | 134 | 175 |
| COC[C@@]1(C)CCN(c2ccc([C@H](N(C)C(=O)C3CCS(=O)(=O)CC3)C(F)(F)F)cc2)c2cnc3cc(Cl)nn3c21 [CPD0073139, N-[(1S)-1-[4-[(13rel-S)-4-chloro-13-(methoxymethyl)-13-methyl-2,3,7,10-tetrazatricyclo[7.4.0.0^2,6]trideca-1(9),3,5,7-tetraen-10-yl]phenyl]-2,2,2-trifluoro-ethyl]-N-methyl-1,1-dioxo-1λ^6-thiane-4-carboxamide] | – | 65 |
| COC[C@]1(C)CCN(c2ccc([C@H](N(C)C(=O)C3CCS(=O)(=O)CC3)C(F)(F)F)cc2)c2cnc3cc(Cl)nn3c21 [CPD0073140, N-[(1S)-1-[4-[(13rel-R)-4-chloro-13-(methoxymethyl)-13-methyl-2,3,7,10-tetrazatricyclo[7.4.0.0^2,6]trideca-1(9),3,5,7-tetraen-10-yl]phenyl]-2,2,2-trifluoro-ethyl]-N-methyl-1,1-dioxo-1λ^6-thiane-4-carboxamide] | – | 192 |
| CN(C(=O)[C@@H]1CCN(C(=O)CC#N)C1)[C@@H](c1ccc(N2CCCc3c2cnc2cc(Cl)nn32)cc1)C(F)(F)F [CPD0073190, (3rel-R)-N-[(1S)-1-[4-(4-chloro-2,3,7,10-tetrazatricyclo[7.4.0.0^2,6]trideca-1(9),3,5,7-tetraen-10-yl)phenyl]-2,2,2-trifluoro-ethyl]-1-(2-cyanoacetyl)-N-methyl-pyrrolidine-3-carboxamide] | – | 239 |
| CN(C(=O)[C@H]1CCN(C(=O)CC#N)C1)[C@@H](c1ccc(N2CCCc3c2cnc2cc(Cl)nn32)cc1)C(F)(F)F [CPD0073191, (3rel-S)-N-[(1S)-1-[4-(4-chloro-2,3,7,10-tetrazatricyclo[7.4.0.0^2,6]trideca-1(9),3,5,7-tetraen-10-yl)phenyl]-2,2,2-trifluoro-ethyl]-1-(2-cyanoacetyl)-N-methyl-pyrrolidine-3-carboxamide] | – | 148 |
| CN(C(=O)[C@H]1C[C@@H]([S@@+](C)(=N)[O-])C1)[C@@H](c1ccc(N2CCCc3c2cnc2cc(Cl)nn32)cc1)C(F)(F)F [CPD0073223, (1R,3s)-N-[(1S)-1-(4-{4-chloro-2,3,7,10-tetraazatricyclo[7.4.0.0^2,6]trideca-1(9),3,5,7-tetraen-10-yl}phenyl)-2,2,2-trifluoroethyl]-3-[(S)-imino(methyl)oxo-λ^6-sulfanyl]-N-methylcyclobutane-1-carboxamide] | – | 172 |
| CN(C(=O)[C@H]1CC[S@](=N)(=O)CC1)[C@@H](c1ccc(N2CC(C)(C)Cc3c2cnc2cc(Cl)nn32)cc1)C(F)(F)F [CPD0073497, (1rel r,4rel r)-N-[(1S)-1-(4-{4-chloro-12,12-dimethyl-2,3,7,10-tetraazatricyclo[7.4.0.0^2,6]trideca-1(9),3,5,7-tetraen-10-yl}phenyl)-2,2,2-trifluoroethyl]-1-imino-N-methyl-1-oxo-1λ^6-thiane-4-carboxamide] | – | 183 |
| CN(C(=O)[C@H]1CC[S@@](=N)(=O)CC1)[C@@H](c1ccc(N2CC(C)(C)Cc3c2cnc2cc(Cl)nn32)cc1)C(F)(F)F [CPD0073498, (1rel s, 4rel s)-N-[(1S)-1-(4-{4-chloro-12,12-dimethyl-2,3,7,10-tetraazatricyclo[7.4.0.0^2,6]trideca-1(9),3,5,7-tetraen-10-yl}phenyl)-2,2,2-trifluoroethyl]-1-imino-N-methyl-1-oxo-1λ^6-thiane-4-carboxamide] | – | 163 |
| COC[C@@H]1CCN(c2ccc([C@H](N(C)C(=O)C3CCS(=O)(=O)CC3)C(F)(F)F)cc2)c2cnc3cc(Cl)nn3c21 [CPD0073503, N-[(1S)-1-[4-[(13rel-R)-4-chloro-13-(methoxymethyl)-2,3,7,10-tetrazatricyclo[7.4.0.0^2,6]trideca-1(9),3,5,7-tetraen-10-yl]phenyl]-2,2,2-trifluoro-ethyl]-N-methyl-1,1-dioxo-16-thiane-4-carboxamide] | – | 209 |
| COC[C@H]1CCN(c2ccc([C@H](N(C)C(=O)C3CCS(=O)(=O)CC3)C(F)(F)F)cc2)c2cnc3cc(Cl)nn3c21 [CPD0073504, N-[(1S)-1-[4-[(13rel-S)-4-chloro-13-(methoxymethyl)-2,3,7,10-tetrazatricyclo[7.4.0.0^2,6]trideca-1(9),3,5,7-tetraen-10-yl]phenyl]-2,2,2-trifluoro-ethyl]-N-methyl-1,1-dioxo-1λ^6-thiane-4-carboxamide] | – | 88 |
| O=C(CC1CS(=O)(=O)C1)N[C@@H](c1ccc(N2CCCc3c2cnc2cc(Cl)nn32)cc1)C(F)(F)F [CPD0073535] | – | 2070 |
| CN(C(=O)C1CCS(=O)(=O)CC1)[C@@H](c1ccc(N2CC[C@@]3(CCOC3)c3c2cnc2cc(Cl)nn32)cc1)C(F)(F)F [CPD0073762, N-[(1S)-1-[4-[(13rel-R)-4-chlorospiro[2,3,7,10-tetrazatricyclo[7.4.0.0^2,6]trideca-1(9),3,5,7-tetraene-13,3′-tetrahydrofuran]-10-yl]phenyl]-2,2,2-trifluoro-ethyl]-N-methyl-1,1-dioxo-1λ^6-thiane-4-carboxamide] | – | 104 |
| CN(C(=O)C1CCS(=O)(=O)CC1)[C@@H](c1ccc(N2CC[C@]3(CCOC3)c3c2cnc2cc(Cl)nn32)cc1)C(F)(F)F [CPD0073763, N-[(1S)-1-[4-[(13rel-S)-4-chlorospiro[2,3,7,10-tetrazatricyclo[7.4.0.0^2,6]trideca-1(9),3,5,7-tetraene-13,3′-tetrahydrofuran]-10-yl]phenyl]-2,2,2-trifluoro-ethyl]-N-methyl-1,1-dioxo-1λ^6-thiane-4-carboxamide] | – | 109 |
| CN(C(=O)[C@@H]1CS(=O)(=O)CC12COC2)[C@@H](c1ccc(N2CCCc3c2cnc2cc(Cl)nn32)cc1)C(F)(F)F [CPD0073974, (8rel-R)-N-[(1S)-1-(4-{4-chloro-2,3,7,10-tetraazatricyclo[7.4.0.0^2,6]trideca-1(9),3,5,7-tetraen-10-yl}phenyl)-2,2,2-trifluoroethyl]-N-methyl-6,6-dioxo-2-oxa-6λ^6-thiaspiro[3.4]octane-8-carboxamide] | – | 340 |
| CN(C(=O)[C@H]1CS(=O)(=O)CC12COC2)[C@@H](c1ccc(N2CCCc3c2cnc2cc(Cl)nn32)cc1)C(F)(F)F [CPD0073975, (8rel-S)-N-[(1S)-1-(4-{4-chloro-2,3,7,10-tetraazatricyclo[7.4.0.0^2,6]trideca-1(9),3,5,7-tetraen-10-yl}phenyl)-2,2,2-trifluoroethyl]-N-methyl-6,6-dioxo-2-oxa-6λ^6-thiaspiro[3.4]octane-8-carboxamide] | – | 341 |
| COc1ccc2ncc(Nc3ccc([C@H](N(C)C(=O)C4CCS(=O)(=O)CC4)C(F)(F)F)cc3)c([C@H]3CCOC3)c2n1 [CPD0074039] | – | 34 |
| COc1ccc2ncc(Nc3ccc([C@H](N(C)C(=O)C4CCS(=O)(=O)CC4)C(F)(F)F)cc3)c([C@@H]3CCOC3)c2n1 [CPD0074040] | – | 33 |
| COc1ccc2ncc(Nc3ccc([C@H](N(C)C(=O)C4CCS(=O)(=O)CC4)C(F)(F)F)cc3)c(C3(OC)COC3)c2n1 [CPD0076414, N-methyl-1,1-dioxo-N-[(1S)-2,2,2-trifluoro-1-[4-[6-methoxy-4-(3-methoxyoxetan-3-yl)-1,5-naphthyridin-3-yllamino]phenyl]ethyl]thiane-4-carboxamide] | – | 267 |
